{"source": "patent US20140227173A1", "about": "“CANCER TREATMENT WITH GAMMA-SECRETASE INHIBITORS” (The Johns Hopkins University, priority 2006, published 2014)", "key": {"Capan-1": {"system": "Capan-1", "test": "Colony formation in soft agar (clonogenicity)", "type": "cell-based, human", "from_the_text": "Specificity of the RNA interference is confirmed by downregulation of Notch1 transcript levels with the specific siRA, but not with the scrambled controls. […] Bar graphs represent colony counts at two weeks, with mean and standard deviations calculated from triplicate experiments.\nBar graphs represent colony counts at two weeks, with mean and standard deviations calculated from triplicate experiments.\n(Top) Experimental scheme illustrating pre-treatment of pancreatic cancer cell lines with GSI-18, prior to plating for soft agar assays and subcutaneous injection in athymic mice. Treatment for 24 hours with GSI-18 or vehicle is followed by recovery in full serum for a further 24 hours minus the drug. Equal numbers of viable cells from the control and treated groups are then plated for colony assays in soft agar, or injected in nude mice. Of note, during the in vitro or in vivo assays, no further drug is administered. […] The dosage required for significant inhibition of clonogenicity varies between 2 μM (Capan-1) to 5 μM (E3LZ10.7). Bar graphs represent colony counts at two weeks, with mean and standard deviations calculated from triplicate experiments. (Left) Pre-treatment with GSI-18 inhibits tumorigenicity of Panc-1 pancreatic cancer cell line in athymic mice. […] Error bars represent standard deviation of five mice per arm."}, "DAOY [1]": {"system": "DAOY", "test": "Double immunolabeling nestin / Ki67 (proliferation)", "type": "cell-based", "conditions": "2 μM, 48 hours"}, "DAOY [2]": {"system": "DAOY", "test": "Tumor engraftment in mice treated intraperitoneally after subcutaneous cell injection", "type": "in vivo, athymic nude mice", "conditions": "0.5 mg i.p. in DMSO for five consecutive days from day of xenograft initiation, four mice", "method": "(§1) FIG. 8G is a graph plotting xenograft volume against number of days following injection of DAOY and DAOY:NIC2D cells in athymic nude mice, which were either treated with vehicle or 0.5 mg i.p. of GSI-18 for 5 consecutive days following subcutaneous tumor injection.\n(§2) As a test of the requirement for ongoing Notch activity during tumor engraftment, animals were treated with GSI-18 after subcutaneously injecting DAOY and DAOY:NICD2 cells into their left and right flanks. A treatment group of four mice received intraperitoneal injections containing 0.5 mg GSI-18 in DMSO for five consecutive days, beginning on the day of xenograft initiation, while the control group was treated with vehicle alone."}, "DAOY:NICD2 [3]": {"system": "DAOY:NICD2", "test": "Tumor engraftment in mice treated intraperitoneally after subcutaneous cell injection", "type": "in vivo, athymic nude mice", "conditions": "0.5 mg i.p. for five consecutive days", "method": "as §1, §2"}, "DAOY [4]": {"system": "DAOY", "test": "Apoptosis by cleaved caspase 3 immunofluorescence in nestin-positive and nestin-negative cells", "type": "cell-based", "conditions": "2 μM, 48 hours"}, "DAOY [5]": {"system": "DAOY", "test": "Number of live cells (Guava Viacount)", "type": "cell-based", "conditions": "2 μM", "method": "(§3) The fact that cultures grew 2-fold or more during the same time period that side population was essentially ablated by Notch pathway blockade provides additional support for the notion that medulloblatoma CSC are especially vulnerable to Notch signaling inhibition.\n(§4) The DAOY, PFSK, D283 and D425 Med cell lines were obtained from the American Type Culture Collection. The low-passage MB line MB2 was derived from a tumor resected at Johns Hopkins Hospital. For treatment studies, cell were plated and allowed to grow overnight in MEM (Invitrogen, Carlsbad, Calif.) containing 10% FBS, then media was replaced the next morning with low serum (0.5% FBS) MEM containing GSI dissolved in DMSO. RNA and protein extractions, and all cell-based assays, were performed 48 hours after drug application unless otherwise noted. All experiments with error bars were performed in triplicate and shown as mean values with standard error unless otherwise noted. Cell mass was measured using CellTITER assays according to the manufacturer's instructions (Promega, Madison, Wis.). Cell number and viability were assessed using the Guava PCA and Viacount reagent according to instructions (Guava Technologies, Heyward, Calif.). Soft agar assays were performed as previously described (15) and scored either manually after 4 weeks or using as automated reader after 6 weeks. The constitutively active Akt stable cell line was made by transfecting DAOY cells with myristolated Akt (pCB6-IMy-Akt-HA) or control (pCB6+) plasmids (kind gifts from Susan J. Baker) and selecting and maintaining clones in 0.8 mg/ml G418. Soft agar assays were performed as previously described, with colonies counted using an automated reader (15)."}, "PFSK": {"system": "PFSK", "test": "Number of live cells (Guava Viacount)", "type": "cell-based", "conditions": "2 μM", "method": "as §3, §4"}, "D425Med [6]": {"system": "D425Med", "test": "Number of live cells (Guava Viacount)", "type": "cell-based", "conditions": "2 μM", "method": "as §3, §4"}, "D283Med [7]": {"system": "D283Med", "test": "Number of live cells (Guava Viacount)", "type": "cell-based", "conditions": "2 μM", "method": "as §3, §4"}, "DAOY [8]": {"system": "DAOY", "test": "Side population (Hoechst 33342 excretion) flow cytometry", "type": "cell-based", "conditions": "DAOY; 2 μM; untreated SP 1.9%", "method": "(§5) The ability to excrete Hoechst dye, which defines SP (also known as “side population”) in flow cytometric analyses, is another marker of tumor-initiating CSC in the blood and brain (7, 8, 20). SP was therefore analyzed to obtain a second measure of the effects of Notch on CSC.\n(§6) Flow cytometric analysis of S-phase fraction and cell cycle kinetics was performed using a FACSCalibur (Becton Dickinson, San Jose, Calif.) with CELL Quest, version 3.3 software (15). CD133 studies were performed using the same instrument, with antibodies from Miltenyi (Miltenyi Biotec, Auburn, Calif.) according to the manufacturer's instructions. […] Prior to analysis, cells were washed and resuspended in 2 μg/ml PI (Sigma, St. Louis, Mo.). […] To ensure proper identification of SP cells, cells were incubated as above with the addition of 50 μM verapamil (Sigma)."}, "D425Med [9]": {"system": "D425Med", "test": "Side population (Hoechst 33342 excretion) flow cytometry", "type": "cell-based", "conditions": "D425Med; 2 μM GSI-18 or verapamil", "method": "as §5, §6"}, "D283Med [10]": {"system": "D283Med", "test": "Side population (Hoechst 33342 excretion) flow cytometry", "type": "cell-based", "conditions": "D283Med; 2 μM GSI-18 or verapamil", "method": "as §5, §6"}, "DAOY:NICD2 [11]": {"system": "DAOY:NICD2", "test": "Side population (Hoechst 33342 excretion) flow cytometry", "type": "cell-based", "conditions": "2 μM GSI-18 or verapamil", "method": "as §5, §6"}, "MB2": {"system": "MB2", "test": "Nestin immunocytochemistry, nestin-positive fraction", "type": "cell-based", "conditions": "2 μM, 48 hours"}}, "data": [{"compound": "O=S(=O)(NC1C2CCC1Cc1ccccc1C2)c1cccs1", "note": "(stereo not drawn) [GSI-18, [11-endo]-N-(5,6,7,8,9,10-hexahydro-6,9-methanobenzo[α][8]annulen-11-yl)-thiophene-2-sulfonamide]", "values": [{"measurement": "colony formation following pre-treatment", "setting": "Capan-1; 24 hours pre-treatment, 24 hours recovery minus drug, colony counts at two weeks", "value": "Significant inhibition of colony formation"}, {"measurement": "clonogenicity, colony formation in soft agar", "setting": "Capan-1; colony counts at two weeks", "value": "significant inhibition of clonogencity"}, {"measurement": "dosage required for significant inhibition of clonogenicity", "setting": "Capan-1; pre-treatment", "value": 2, "unit": "µM"}, {"measurement": "fraction of Ki67 positive cells in nestin-negative subpopulation", "setting": "DAOY [1]", "value": "changed only slightly"}, {"measurement": "proliferation (Ki67-positive cells) in nestin-positive subpopulation", "setting": "DAOY [1]", "value": "significant reduction in the proliferation"}, {"measurement": "engraftment in treated animals", "setting": "DAOY [2]", "value": "failed to engraft in three of the four"}, {"measurement": "tumor development in treated animals", "setting": "DAOY:NICD2 [3]", "value": "Tumors also developed"}, {"measurement": "increase of apoptotic rate in nestin-positive cells (putative CSC)", "setting": "DAOY [4]", "value": "over 10 fold"}, {"measurement": "growth in the number of live cells", "setting": "DAOY [5]", "value": "reduced as compared to vehicle treated controls"}, {"measurement": "growth in the number of live cells", "setting": "PFSK", "value": "reduced as compared to vehicle treated controls"}, {"measurement": "growth in the number of live cells", "setting": "D425Med [6]", "value": "reduced as compared to vehicle treated controls"}, {"measurement": "growth in the number of live cells", "setting": "D283Med [7]", "value": "reduced as compared to vehicle treated controls"}, {"measurement": "remaining cells negative for Hoechst dye (side population)", "setting": "DAOY [8]", "value": 0.01, "unit": "%"}, {"measurement": "side population", "setting": "D425Med [9]", "value": "ablated"}, {"measurement": "side population", "setting": "D283Med [10]", "value": "ablated"}, {"measurement": "side population under NICD2 expression", "setting": "DAOY:NICD2 [11]", "value": "protected the SP from GSI-18 exposure"}, {"measurement": "nestin-positive fraction", "setting": "MB2", "value": "significant reduction"}]}]}
